In patent publication US20160206688A1, “METHODS FOR TREATING BACTEREMIA AND OSTEOMYELITIS USING ORITAVANCIN” (THE MEDICINES COMPANY, priority 2013, published 2016):
≈ marks a conversion by molar mass, not a printed value.

Assays:
E. faecium [1] = experiment: Broth microdilution MIC, US isolates 2011-2012, blood vs non-blood; format: cell-based
Protocol: (§1) 527 E. faecalis, 176 E. faecium, and 790 BHS (335 S. pyogenes and 455 S. agalactiae) clinical, single patient, non-consecutive isolates were collected in 2011-2012 from 46 sites geographically distributed across the United States. The MICs were determined by broth microdilution testing performed in accordance with CLSI M7 and M100 guidelines. From the resulting database, this analysis focused on the activities of ORI, vancomycin (VAN), daptomycin (DAP), and linezolid (LZD) according to specimen source.

S. agalactiae = experiment: as above; format: cell-based
Protocol: as §1

E. faecalis [2] = experiment: as above; format: cell-based
Protocol: as §1

S. pyogenes = experiment: as above; format: cell-based
Protocol: as §1

MDR SA = experiment: Microdilution MIC against MDR SA by specimen source; format: cell-based, S. aureus
Protocol: 456 clinical, single-patient, non-consecutive, MDR SA isolates from the known specimen sources collected in 2011-2012 were analyzed. MDR was defined as resistant to ≧3 of the following: erythromycin, clindamycin, gentamicin, levofloxacin, and trimethoprim/sulfamethoxazole. 382 were MRSA and 74 were MSSA. MICs were determined by microdilution testing in accordance with CLSI M7 and M100 guidelines. Although other comparator drugs were tested, this analysis focuses on the activities of ORI, VAN, DAP, and LZD.

S. aureus = experiment: Broth microdilution MIC, European bacteraemia isolates 2010-2012; format: cell-based; conditions: S. aureus Methicillin-resistant (1,708)
Protocol: (§2) A total of 2,904 clinical strains responsible for documented bacteremia among unique hospitalized patients in 38 hospitals in 11 European Union countries. Israel, Russia, Turkey and Ukraine were included in this study (2010-2012). Isolates were submitted to a central monitoring laboratory (JMI Laboratories, North Liberty. Iowa. USA), following previously established protocols. Bacterial species identification was performed by using an automated system (Vitek®2; bioMèrieux, Hazelwood, Mo., USA) or conventional biochemical algorithms, as required.
(§3) Isolates were tested for susceptibility by broth microdilution methods following the Clinical and Laboratory Standards Institute (CLSI; M07-A9, 2012) document. Susceptibility testing was performed in cation-adjusted Mueller-Hinton broth (CA-MHB) using dry-form panels manufactured by Thermo Fisher Scientific, formerly TREK Diagnostics Systems/Sensititre (Cleveland. Ohio, USA). These panels provide results equivalent to the CLSI-approved broth microdilution method supplemented with 0.002% polysorbate-80.
(§4) Quality assurance was performed by concurrent testing of CLSI-recommended (M100-S23, 2013) strains: E. faecalis ATCC 29212 and S. aureus ATCC 29213. Interpretation of comparator MIC results was in accordance with published CLSI (M100-S23) and European Committee on Antimicrobial Susceptibility Testing (EUCAST, 2013) criteria.

[3] = tested on: Coagulase-negative staphylococci; experiment: as above; format: cell-based, coagulase-negative staphylococci (CoNS); conditions: Coagulase-negative staphylococci (646)
Protocol: as §2, §3, §4

E. faecalis [4] = experiment: as above; format: cell-based, Enterococcus faecalis
Protocol: as §2, §3, §4

E. faecium [5] = experiment: as above; format: cell-based, Enterococcus faecium; conditions: for % Resistant, CLSI / % Susceptible, CLSI: CLSI M100-S23 breakpoints; for % Resistant, EUCAST / % Susceptible, EUCAST: EUCAST 2013 breakpoints; for MIC50 / MIC90 / MIC Range: Table 2
Protocol: as §2, §3, §4

VRE = experiment: Susceptibility of the subject's blood culture isolate (treatment history); format: cell-based
Text: 11, 2013; the plan was for at least 8 weeks of antibiotic therapy.

[6] = E. faecalis (445), CLSI M100-S23 breakpoints
[7] = E. faecalis (445), EUCAST 2013 breakpoints
[8] = E. faecium Vancomycin-resistant (VanA-phenotype) (153)
[9] = E. faecium Vancomycin-susceptible (257)
[10] = Enterococcus faecium, E. faecium Vancomycin-resistant (VanA-phenotype) (153)
[11] = Enterococcus faecium, E. faecium Vancomycin-susceptible (257)

CN[C@H](CC(C)C)C(=O)N[C@H]1C(=O)N[C@@H](CC(N)=O)C(=O)N[C@H]2C(=O)N[C@H]3C(=O)N[C@H](C(=O)N[C@H](C(=O)O)c4cc(O)cc(O)c4-c4cc3ccc4O)[C@H](O)c3ccc(c(Cl)c3)Oc3cc2cc(c3O[C@@H]2O[C@H](CO)[C@@H](O)[C@H](O)[C@H]2O[C@H]2C[C@](C)(N)[C@H](O)[C@H](C)O2)Oc2ccc(cc2Cl)[C@H]1O [Vancomycin, vancomycin]
MIC90 (E. faecium [1]; Blood, N 84): > 32 µg/mL | MIC90 (E. faecium [1]; Non-Blood, N 92): > 32 µg/mL | MIC90 (S. agalactiae; Blood, N 100): 0.5 µg/mL (≈ 0.345 µM) | MIC90 (S. agalactiae; Non-Blood, N 355): 0.5 µg/mL (≈ 0.345 µM) | MIC90 (E. faecalis [2]; Blood, N 116): 2 µg/mL (≈ 1.38 µM) | MIC90 (E. faecalis [2]; Non-Blood, N 411): 2 µg/mL (≈ 1.38 µM) | MIC90 (S. pyogenes; Blood, N 53): 0.25 µg/mL (≈ 0.173 µM) | MIC90 (S. pyogenes; Non-Blood, N 282): 0.25 µg/mL (≈ 0.173 µM) | MIC50 (MDR SA; Blood, n = 108): 0.5 µg/mL (≈ 0.345 µM) | MIC90 (MDR SA; Blood, n = 108): 1 µg/mL (≈ 0.69 µM) | Mode (MIC) (MDR SA; Blood, n = 108): 0.5 µg/mL | Range (MIC) (MDR SA; Blood, n = 108, in µg/mL): 0.5-2 | MIC50 (MDR SA; Respiratory, N = 157): 0.5 µg/mL (≈ 0.345 µM) | MIC90 (MDR SA; Respiratory, N = 157): 1 µg/mL (≈ 0.69 µM) | Mode (MIC) (MDR SA; Respiratory, N = 157): 0.5 µg/mL | Range (MIC) (MDR SA; Respiratory, N = 157): ≦0.25-1 | MIC50 (MDR SA; Skin/Wound, N = 191): 0.5 µg/mL (≈ 0.345 µM) | MIC90 (MDR SA; Skin/Wound, N = 191): 1 µg/mL (≈ 0.69 µM) | Mode (MIC) (MDR SA; Skin/Wound, N = 191): 0.5 µg/mL | Range (MIC) (MDR SA; Skin/Wound, N = 191): ≦0.25-1 | % Resistant, CLSI (S. aureus; CLSI M100-S23 breakpoints): 0.0% | % Susceptible, CLSI (S. aureus; CLSI M100-S23 breakpoints): 100.0% | % Resistant, EUCAST (S. aureus; EUCAST 2013 breakpoints): 0.0% | % Susceptible, EUCAST (S. aureus; EUCAST 2013 breakpoints): 100.0% | MIC50 (S. aureus; Staphylococcus aureus, Table 2): 1 µg/mL (≈ 0.69 µM) | MIC90 (S. aureus; Staphylococcus aureus, Table 2): 1 µg/mL (≈ 0.69 µM) | MIC Range (S. aureus; Table 2): 0.25 to 2 µg/mL | % Resistant, CLSI ([3]; CLSI M100-S23 breakpoints): 0.0% | MIC50 ([3]; Table 2): 2 µg/mL (≈ 1.38 µM) | MIC90 ([3]; Table 2): 2 µg/mL (≈ 1.38 µM) | MIC Range ([3]; Table 2): 0.25 to 4 µg/mL | % Resistant, CLSI (E. faecalis [4]; [6]): 0.9% | % Susceptible, CLSI (E. faecalis [4]; [6]): 99.1% | % Resistant, EUCAST (E. faecalis [4]; [7]): 0.9% | % Susceptible, EUCAST (E. faecalis [4]; [7]): 99.1% | % susceptible (E. faecalis [4]; E. faecalis strains, criteria not stated): 99.1% | MIC50 (E. faecalis [4]; Enterococcus faecalis): 1 µg/mL (≈ 0.69 µM) | MIC90 (E. faecalis [4]; Enterococcus faecalis): 2 µg/mL (≈ 1.38 µM) | % Resistant, CLSI (E. faecium [5]; [8]): 100.0% | % Susceptible, CLSI (E. faecium [5]; [8]): 0.0% | % Resistant, EUCAST (E. faecium [5]; [8]): 100.0% | % Susceptible, EUCAST (E. faecium [5]; [8]): 0.0% | % Resistant, CLSI (E. faecium [5]; [9]): 0.0% | % Susceptible, CLSI (E. faecium [5]; [9]): 100.0% | % Resistant, EUCAST (E. faecium [5]; [9]): 0.0% | % Susceptible, EUCAST (E. faecium [5]; [9]): 100.0% | MIC50 (E. faecium [5]; [10]): > 16 µg/mL | MIC90 (E. faecium [5]; [10]): > 16 µg/mL | MIC50 (E. faecium [5]; [11]): 1 µg/mL (≈ 0.69 µM) | MIC90 (E. faecium [5]; [11]): 1 µg/mL (≈ 0.69 µM) | MIC (E. faecium [5]; Enterococcus faecium, read-out: MIC values): > 4 µg/mL | MIC Range (E. faecium [5]; [8]): >16 µg/mL | MIC Range (E. faecium [5]; [9]): 0.5 to 4 µg/mL

CCCCCCCCCCNCCN[C@@]1(C)C[C@H](O[C@H]2[C@H](Oc3c4cc5cc3Oc3ccc(cc3Cl)[C@@H](O)[C@@H](NC(=O)[C@@H](CC(C)C)NC)C(=O)N[C@@H](CC(N)=O)C(=O)N[C@H]5C(=O)N[C@H]3C(=O)N[C@H](C(=O)N[C@H](C(=O)O)c5cc(O)c(CNCP(=O)(O)O)c(O)c5-c5cc3ccc5O)[C@H](O)c3ccc(c(Cl)c3)O4)O[C@H](CO)[C@@H](O)[C@@H]2O)O[C@@H](C)[C@H]1O [televancin]
susceptibility (VRE; 2012 December): resistant

CN(C)c1cc(NC(=O)CNC(C)(C)C)c(O)c2c1C[C@H]1C[C@H]3[C@H](N(C)C)C(O)=C(C(N)=O)C(=O)[C@@]3(O)C(O)=C1C2=O [tigecycline]
susceptibility (VRE; 2012 July): susceptible
